Test results published in PMC7065246 (Journal of the American Chemical Society, 2020).

Legend:
[1] = target: T1, PhqK (Penicillium fellutanum, UniProt L0E4H0); assay: crystal structures; assay type: binding; details: out conformation with and without substrate
[2] = target: T1, PhqK; assay: Michaelis-Menten kinetics of spirocyclization; assay type: biochemical; details: FAD-dependent monooxygenase reaction; details in supplement

T1 sequence (L0E4H0 whole entry): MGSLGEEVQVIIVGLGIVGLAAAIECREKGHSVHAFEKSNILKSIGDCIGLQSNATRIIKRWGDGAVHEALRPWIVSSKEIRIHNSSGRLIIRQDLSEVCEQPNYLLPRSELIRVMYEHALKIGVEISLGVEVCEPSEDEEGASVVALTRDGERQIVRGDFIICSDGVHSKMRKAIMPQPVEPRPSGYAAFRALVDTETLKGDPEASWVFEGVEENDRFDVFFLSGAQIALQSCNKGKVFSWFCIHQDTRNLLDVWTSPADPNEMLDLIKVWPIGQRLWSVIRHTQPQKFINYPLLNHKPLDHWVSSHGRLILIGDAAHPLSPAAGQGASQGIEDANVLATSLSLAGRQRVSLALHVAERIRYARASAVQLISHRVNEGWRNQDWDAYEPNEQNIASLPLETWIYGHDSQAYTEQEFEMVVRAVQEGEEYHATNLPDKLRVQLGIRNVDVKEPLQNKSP

Row | Molecule | crystal structures (ligand-free 1.71 Å and substrate complexes) [1] | Km [2] [µM]
1 | Cc1cc2nc3c(=O)[nH]c(=O)nc-3n(C[C@H](O)[C@H](O)[C@H](O)COP(=O)(O)OP(=O)(O)OC[C@H]3O[C@@H](n4cnc5c(N)ncnc54)[C@H](O)[C@@H]3O)c2cc1C [FAD] | substrate bound and unbound PhqK structures, the flavin was observed in the “out” conformation | –
2 | paraherquamide L [compound 15] | – | 19.4 ± 5.2
